# According to ChEMBL document CHEMBL1201862, “PubChem BioAssay data set” (2004):
#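 Protocol summary: plate cells (96-well), add compound at 5 concentrations, incubate 48 h, interpolate endpoints linearly. The concentration for 50% growth inhibition is given as GI50.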 The source made the active and inactive calls. Cut-off read from the data, not from the text of the source: active = GI50 up to about 1.1 µM and inactive = higher.
# How the values were obtained:
# Assay in all cases: inhibition of tumour cell growth, NCI panel, 48 h
# [1] = test system: SF-268
# [2] = test system: M19-MEL
# [3] = test system: EKVX
# [4] = test system: HOP-92
# [5] = test system: OVCAR-4
# [6] = test system: NCI-H23
# [7] = test system: LXFL 529
# [8] = test system: DLD-1
# [9] = test system: SN12C
# [10] = test system: KM12
# [11] = test system: HCT-116
# [12] = test system: SK-MEL-2
# [13] = test system: LOX IMVI
# [14] = test system: CAKI-1
# [15] = test system: DMS-114
# [16] = test system: XF498
# [17] = test system: SK-MEL-28
# [18] = test system: SK-MEL-5
# [19] = test system: SW-620
# [20] = test system: U-251
# [21] = test system: COLO 205
# [22] = test system: HCC 2998
# [23] = test system: SNB-75
# [24] = test system: UACC-257
# [25] = test system: SNB-78
# [26] = test system: NCI-H522
# [27] = test system: NCI-H226
# [28] = test system: A498
# [29] = test system: SF-295
# [30] = test system: HCT-15
# [31] = test system: A549
# [32] = test system: UO-31
# [33] = test system: OVCAR-5
# [34] = test system: DMS-273
# [35] = test system: HOP-62
# [36] = test system: SK-OV-3
# [37] = test system: OVCAR-8
# [38] = test system: ACHN
# [39] = test system: TK-10
# [40] = test system: IGROV-1
# [41] = test system: UACC-62
# [42] = test system: RXF 393
# [43] = test system: 786-0
# [44] = test system: M14
# [45] = test system: KM-20L2
# [46] = test system: Malme-3M
# [47] = test system: OVCAR-3
# [48] = test system: HT-29
# [49] = test system: SNB-19
# [50] = test system: CCRF-CEM
# [51] = test system: MOLT-4
# [52] = test system: K562
# [53] = test system: HL-60
# [54] = test system: RPMI-8226
# [55] = test system: SR
# [56] = test system: SF-539
# [57] = test system: NCI-H460
compound,measurement,setting,value
N#CCC(=O)N/N=C1/C(=O)N(c2ccc(Cl)cc2)C(=O)C(=O)C1c1nc2ccccc2s1 (configuration not stated),GI50,[1],55.5 µM (inactive)
same,GI50,[2],40.7 µM (inactive)
same,GI50,[3],89.3 µM (inactive)
same,GI50,[4],28.2 µM (inactive)
same,GI50,[5],> 100 µM (inactive)
same,GI50,[6],> 100 µM (inactive)
same,GI50,[7],> 100 µM (inactive)
same,GI50,[8],> 100 µM (inactive)
same,GI50,[9],> 100 µM (inactive)
same,GI50,[10],> 100 µM (inactive)
same,GI50,[11],53.7 µM (inactive)
same,GI50,[12],89.9 µM (inactive)
same,GI50,[13],38.2 µM (inactive)
same,GI50,[14],> 100 µM (inactive)
same,GI50,[15],> 100 µM (inactive)
same,GI50,[16],> 100 µM (inactive)
same,GI50,[17],> 100 µM (inactive)
same,GI50,[18],> 100 µM (inactive)
same,GI50,[19],> 100 µM (inactive)
same,GI50,[20],> 100 µM (inactive)
same,GI50,[21],> 100 µM (inactive)
same,GI50,[22],> 100 µM (inactive)
same,GI50,[23],20.8 µM (inactive)
same,GI50,[24],65.6 µM (inactive)
same,GI50,[25],> 100 µM (inactive)
same,GI50,[26],46.3 µM (inactive)
same,GI50,[27],26.3 µM (inactive)
same,GI50,[28],> 100 µM (inactive)
same,GI50,[29],> 100 µM (inactive)
same,GI50,[30],> 100 µM
same,GI50,[31],> 100 µM (inactive)
same,GI50,[32],28.5 µM (inactive)
same,GI50,[33],> 100 µM (inactive)
same,GI50,[34],> 100 µM (inactive)
same,GI50,[35],> 100 µM (inactive)
same,GI50,[36],> 100 µM (inactive)
same,GI50,[37],95.9 µM (inactive)
same,GI50,[38],> 100 µM (inactive)
same,GI50,[39],> 100 µM (inactive)
same,GI50,[40],> 100 µM (inactive)
same,GI50,[41],60.3 µM (inactive)
same,GI50,[42],25.8 µM (inactive)
same,GI50,[43],> 100 µM (inactive)
same,GI50,[44],> 100 µM (inactive)
same,GI50,[45],> 100 µM (inactive)
same,GI50,[46],> 100 µM (inactive)
same,GI50,[47],> 100 µM (inactive)
same,GI50,[48],> 100 µM (inactive)
same,GI50,[49],> 100 µM (inactive)
C1OCC2S[C@@H]3COCO[C@@H]3C2O1 (some centres not stated),GI50,[1],> 100 µM (inactive)
same,GI50,[2],> 100 µM (inactive)
same,GI50,[50],> 100 µM (inactive)
same,GI50,[51],> 100 µM (inactive)
same,GI50,[3],> 100 µM (inactive)
same,GI50,[52],> 100 µM (inactive)
same,GI50,[53],> 100 µM (inactive)
same,GI50,[5],> 100 µM (inactive)
same,GI50,[6],> 100 µM (inactive)
same,GI50,[7],> 100 µM (inactive)
same,GI50,[8],> 100 µM (inactive)
same,GI50,[9],> 100 µM (inactive)
same,GI50,[10],> 100 µM (inactive)
same,GI50,[11],> 100 µM (inactive)
same,GI50,[13],> 100 µM (inactive)
same,GI50,[14],> 100 µM (inactive)
same,GI50,[15],> 100 µM (inactive)
same,GI50,[16],> 100 µM (inactive)
same,GI50,[17],> 100 µM (inactive)
same,GI50,[18],> 100 µM (inactive)
same,GI50,[20],> 100 µM (inactive)
same,GI50,[54],> 100 µM (inactive)
same,GI50,[21],> 100 µM (inactive)
same,GI50,[22],> 100 µM (inactive)
same,GI50,[23],> 100 µM (inactive)
same,GI50,[55],> 100 µM (inactive)
same,GI50,[24],> 100 µM (inactive)
same,GI50,[25],> 100 µM (inactive)
same,GI50,[26],> 100 µM (inactive)
same,GI50,[27],> 100 µM (inactive)
same,GI50,[28],> 100 µM (inactive)
same,GI50,[29],> 100 µM (inactive)
same,GI50,[30],> 100 µM
same,GI50,[31],> 100 µM (inactive)
same,GI50,[32],> 100 µM (inactive)
same,GI50,[33],> 100 µM (inactive)
same,GI50,[34],> 100 µM (inactive)
same,GI50,[35],> 100 µM (inactive)
same,GI50,[36],> 100 µM (inactive)
same,GI50,[37],> 100 µM (inactive)
same,GI50,[38],> 100 µM (inactive)
same,GI50,[39],> 100 µM (inactive)
same,GI50,[41],> 100 µM (inactive)
same,GI50,[42],> 100 µM (inactive)
same,GI50,[43],> 100 µM (inactive)
same,GI50,[56],> 100 µM (inactive)
same,GI50,[57],> 100 µM (inactive)
same,GI50,[44],> 100 µM (inactive)
same,GI50,[45],> 100 µM (inactive)
same,GI50,[46],> 100 µM (inactive)
same,GI50,[47],> 100 µM (inactive)
same,GI50,[48],> 100 µM (inactive)
same,GI50,[49],> 100 µM (inactive)
CN(C)CCn1c2ccccc2c2nc3cc4ccccc4cc3nc21,GI50,[1],2.14 µM (inactive)
same,GI50,[2],8.73 µM (inactive)
same,GI50,[50],2.88 µM (inactive)
same,GI50,[51],0.885 µM (active)
same,GI50,[3],12.6 µM (inactive)
same,GI50,[52],2.92 µM (inactive)
same,GI50,[53],1.86 µM (inactive)
same,GI50,[5],7.91 µM (inactive)
same,GI50,[6],8.91 µM (inactive)
same,GI50,[7],4.95 µM (inactive)
same,GI50,[8],3.81 µM (inactive)
same,GI50,[9],4.61 µM (inactive)
same,GI50,[10],3.74 µM (inactive)
same,GI50,[11],3.79 µM (inactive)
same,GI50,[12],11.1 µM (inactive)
same,GI50,[13],3.18 µM (inactive)
same,GI50,[14],4.91 µM (inactive)
same,GI50,[15],6.47 µM (inactive)
same,GI50,[16],7.66 µM (inactive)
same,GI50,[17],9.23 µM (inactive)
same,GI50,[18],10.1 µM (inactive)
same,GI50,[19],3.48 µM (inactive)
same,GI50,[20],6.79 µM (inactive)
same,GI50,[54],2.91 µM (inactive)
same,GI50,[21],1.87 µM (inactive)
same,GI50,[22],5.69 µM (inactive)
same,GI50,[26],5.79 µM (inactive)
same,GI50,[27],14 µM (inactive)
same,GI50,[28],2.34 µM (inactive)
same,GI50,[29],4.05 µM (inactive)
same,GI50,[30],4.81 µM
same,GI50,[31],3.67 µM (inactive)
same,GI50,[32],5.07 µM (inactive)
same,GI50,[34],3.13 µM (inactive)
same,GI50,[35],3.07 µM (inactive)
same,GI50,[36],5.75 µM (inactive)
same,GI50,[37],5.9 µM (inactive)
same,GI50,[38],2.48 µM (inactive)
same,GI50,[39],10.5 µM (inactive)
same,GI50,[40],2.08 µM (inactive)
same,GI50,[41],9.14 µM (inactive)
same,GI50,[42],11 µM (inactive)
same,GI50,[43],3.23 µM (inactive)
same,GI50,[57],0.796 µM (active)
same,GI50,[44],4.1 µM (inactive)
same,GI50,[45],3.3 µM (inactive)
same,GI50,[46],10 µM (inactive)
same,GI50,[47],10.6 µM (inactive)
same,GI50,[48],0.643 µM (active)
same,GI50,[49],13.5 µM (inactive)
